Measurements published in patent publication US6197982A, “Vitamin D analogues” (priority 1996, dated 2001).
Entries after “also recorded” stand apart in the source; their conditions may differ. Read-outs that look alike come from different tables or passages of the source. Each block holds one molecule with its values, some of them ahead of it.

How the values were obtained:
[1] = test system: HaCaT, human skin keratinocyte cell line; assay: HaCaT antiproliferative assay, 3H-thymidine uptake; format: cell-based; settings: for inhibition at 0.1 µM: Homo sapiens, HaCaT, read-out: HaCaT, max. % (maximal inhibition of the cell proliferation); for inhibition at 0.1 µM / maximal inhibition in HaCaT, in words: at 10^-7 M; for maximal inhibition in HaCaT, in words / potency in the HaCaT-assay (psoriasis model), in words: compared with 1,25(OH)2 D3; for HaCaT rel. (ratio between the IC50 value of 1,25(OH)2 D3 and the IC50 value of the compound): relative to 1,25(OH)2 D3, 3H-thymidine incorporation, >1 = more active
From the text: (§1) .sunburst. The values are relative to 1,25 (OH)2 D3; a value
(§2) H-thymidine incorporation compared to controls.
.cndot. "HaCaT, max %" indicates the maximal inhibition of the cell
proliferation (maximal efficacy) which is obtainable at the higher
concentration of 10^-7 M of a compound.

[2] = test system: mouse spleen lymphocytes; assay: mixed lymphocyte reaction (MLR), 3H-thymidine incorporation; format: cell-based, mouse (BALB/c and CB6F1); settings: for immunosuppressive activity (MLR), in words: also in comparison with prior art reference compounds; for MLR rel. (ratio between the IC50 value of 1,25(OH)2 D3 and the IC50 value of the compound): relative to 1,25(OH)2 D3, 72 hours, >1 = more active
Procedure: The mixed cultures of lymphocytes are incubated with the test compounds for 72 hours. Cellular DNA-synthesis is assessed by the incorporation of ^3 H-thymidine in the D
as §1, §2

[3] = calcemic activity in rats in vivo; parameters: species or system rat; key to Calc. rel. (calcemic activity relative to 1,25(OH)2 D3): calcemic activity relative to 1,25(OH)2D3 (=1); settings: for calcemic activity, in words: compared with 1,25(OH)2 D3; for Calc. rel. (calcemic activity relative to 1,25(OH)2 D3): rats in vivo, low values preferred
Procedure: The calcemic activity of the compounds was determined in rats in vivo, as previously described. In table 1, column "Calc., rel.", the calcemic activities of selected compounds (relative to 1,25(OH)2 D3) are listed; as mentioned, low values for the compounds of the present invention are ordinarily preferred.
as §1

[4] = test system: calcium metabolism; settings: cited from earlier work; for activity on calcium metabolism: in vivo
[5] = test system: type I diabetes, non-obese diabetic (NOD) mouse; settings: cited from earlier work
[6] = test system: cells; settings: cited from earlier work
[7] = test system: angiogenesis; settings: cited from earlier work
[8] = test system: monocytes/macrophages; settings: cited from earlier work
[9] = test system: activated T-lymphocytes; settings: cited from earlier work
[10] = test system: B-lymphocytes; settings: in vitro; cited from earlier work
[11] = test system: Cytotoxic T-cells; settings: cited from earlier work
[12] = test system: regulatory/suppressor T-lymphocytes; settings: cited from earlier work
[13] = test system: immune functions; settings: in vivo; cited from earlier work
[14] = test system: HL-60 cancer cells; settings: relative to 1,25(OH)2 D3; cited from earlier work
[15] = test system: receptor; settings: relative to 1,25(OH)2 D3; cited from earlier work
[16] = test system: skin allograft; settings: mice; cited from earlier work
[17] = test system: breast cancer cells; settings: in vitro; cited from earlier work
[18] = test system: breast cancer cells; settings: cited from earlier work
[19] = test system: autoimmune disease recurrence in NOD mice; settings: cited from earlier work
[20] = test system: transcriptional activity; settings: compared to 1,25(OH)2 D3; cited from earlier work
[21] = test system: psoriasis; settings: cited from earlier work
[22] = in vivo; cited from earlier work
[23] = test system: graft rejection; settings: cited from earlier work

MLR rel. (ratio between the IC50 value of 1,25(OH)2 D3 and the IC50 value of the compound) [2]: 175
Calc. rel. (calcemic activity relative to 1,25(OH)2 D3) [3]: 0.45
SMILES: C=C1/C(=C\C=C2/CCC[C@]3(C)[C@@H]([C@@H](C)C(CCC(C)(C)O)OC)CC[C@@H]23)C[C@@H](O)C[C@@H]1O (single isomer, unassigned) [Compound 101]
inhibition at 0.1 µM [1]: 92%
maximal inhibition in HaCaT, in words [1]: the same, or higher, maximal inhibition at 10^-7 M as 1,25(OH)2 D3
potency in the HaCaT-assay (psoriasis model), in words [1]: considerably more potent than 1,25(OH)2 D3
HaCaT rel. (ratio between the IC50 value of 1,25(OH)2 D3 and the IC50 value of the compound) [1]: 28
immunosuppressive activity (MLR), in words [2]: potent effects
calcemic activity, in words [3]: only about half as large as that of 1,25(OH)2 D3

MLR rel. (ratio between the IC50 value of 1,25(OH)2 D3 and the IC50 value of the compound) [2]: 161
Calc. rel. (calcemic activity relative to 1,25(OH)2 D3) [3]: 0.50
SMILES: C=C1/C(=C\C=C2/CCC[C@]3(C)[C@@H]([C@@H](C)C(CCC(C)(C)O)OCC)CC[C@@H]23)C[C@@H](O)C[C@@H]1O (single isomer, unassigned) [Compound 102]
inhibition at 0.1 µM [1]: 85%
maximal inhibition in HaCaT, in words [1]: the same, or higher, maximal inhibition at 10^-7 M as 1,25(OH)2 D3
potency in the HaCaT-assay (psoriasis model), in words [1]: considerably more potent than 1,25(OH)2 D3
HaCaT rel. (ratio between the IC50 value of 1,25(OH)2 D3 and the IC50 value of the compound) [1]: 137
immunosuppressive activity (MLR), in words [2]: potent effects
calcemic activity, in words [3]: only about half as large as that of 1,25(OH)2 D3

MLR rel. (ratio between the IC50 value of 1,25(OH)2 D3 and the IC50 value of the compound) [2]: 13
Calc. rel. (calcemic activity relative to 1,25(OH)2 D3) [3]: 8.2
SMILES: C=C1/C(=C\C=C2/CCC[C@]3(C)[C@@H]([C@@H](C)C(O)C#CC(O)(CC)CC)CC[C@@H]23)C[C@@H](O)C[C@@H]1O (some centres unmarked) [GS1535]
inhibition at 0.1 µM [1]: 82%
HaCaT rel. (ratio between the IC50 value of 1,25(OH)2 D3 and the IC50 value of the compound) [1]: 313

MLR rel. (ratio between the IC50 value of 1,25(OH)2 D3 and the IC50 value of the compound) [2]: 36
Calc. rel. (calcemic activity relative to 1,25(OH)2 D3) [3]: 1.2
SMILES: C=C1/C(=C\C=C2/CCC[C@]3(C)[C@@H]([C@@H](C)C(C#CC(O)(CC)CC)OCC)CC[C@@H]23)C[C@@H](O)C[C@@H]1O (some centres unmarked) [GS1720]
inhibition at 0.1 µM [1]: 70%
HaCaT rel. (ratio between the IC50 value of 1,25(OH)2 D3 and the IC50 value of the compound) [1]: 3.9

MLR rel. (ratio between the IC50 value of 1,25(OH)2 D3 and the IC50 value of the compound) [2]: 150
Calc. rel. (calcemic activity relative to 1,25(OH)2 D3) [3]: 12
SMILES: C=C1/C(=C\C=C2/CCC[C@]3(C)[C@@H]([C@@H](C)C(C#CC(O)(CC)CC)OC)CC[C@@H]23)C[C@@H](O)C[C@@H]1O (some centres unmarked) [GS1725]
inhibition at 0.1 µM [1]: 96%
HaCaT rel. (ratio between the IC50 value of 1,25(OH)2 D3 and the IC50 value of the compound) [1]: 4.4

MLR rel. (ratio between the IC50 value of 1,25(OH)2 D3 and the IC50 value of the compound) [2]: 0.6
Calc. rel. (calcemic activity relative to 1,25(OH)2 D3) [3]: 0.005
SMILES: C=C1/C(=C\C=C2/CCC[C@]3(C)[C@@H]([C@H](C)/C=C/[C@@H](O)C4CC4)CC[C@@H]23)C[C@@H](O)C[C@@H]1O [MC903]
inhibition at 0.1 µM [1]: 78%
HaCaT rel. (ratio between the IC50 value of 1,25(OH)2 D3 and the IC50 value of the compound) [1]: 1.8
hypercalcemia in patients ([21]; psoriasis patients): without hypercalcemia
improvement, % of the patients ([21]; without hypercalcemia, psoriasis): 70-80%
metabolism [22]: rapid metabolism
activity on calcium metabolism [4]: only moderate activity on calcium metabolism in vivo
activity on calcium metabolism ([4]; listed as Calcipotriol): low in vivo activity on calcium metabolism

More lines, now with the values behind:

SMILES: C=C1/C(=C\C=C2/CCC[C@]3(C)[C@@H]([C@H](C)CCCC(C)(C)O)CC[C@@H]23)C[C@@H](O)C[C@@H]1O [1,25(OH)2 D3, 1α,25-dihydroxy-vitamin D3]
inhibition at 0.1 µM [1]: 85%
HaCaT rel. (ratio between the IC50 value of 1,25(OH)2 D3 and the IC50 value of the compound) [1]: 1
MLR rel. (ratio between the IC50 value of 1,25(OH)2 D3 and the IC50 value of the compound) [2]: 1
Calc. rel. (calcemic activity relative to 1,25(OH)2 D3) [3]: 1
hypercalcemia ([4]; high doses necessary for therapeutic effect on e.g. psoriasis, cancer, immunological disorders): serious side effects due to hypercalcemia
immunoregulation in type I diabetes [5]: effective immunomodulator
differentiation of cells [6]: stimulate the differentiation of cells
excessive cell proliferation [6]: inhibit excessive cell proliferation
angiogenesis [7]: inhibition of angiogenesis
production/release of cytokines such as IL-1 and TNF ([8]; antigen-stimulated monocytes/macrophages): downregulation
antibacterial activity of monocytes/macrophages [8]: enhances their antibacterial activity
differentiation of monocytes towards macrophages [8]: stimulates the differentiation of monocytes towards macrophages
cytokines IL-2 and INF-γ [9]: down-regulation of cytokines IL-2 and INF-γ
proliferation of activated T-lymphocytes [9]: inhibited
formation of antibodies (IgM and IgG) from B-lymphocytes [10]: indirect inhibition of the formation of antibodies (IgM and IgG)
cytotoxic T-cells [11]: inhibited
regulatory/suppressor T-lymphocytes [12]: stimulated
immune functions in vitamin D deficiency states [13]: restores normal immune functions in vitamin D deficiency states in vivo

SMILES: C=C1/C(=C\C=C2/CCC[C@]3(C)[C@@H]([C@H](C)[C@H](CCC(C)(C)O)OC)CC[C@@H]23)C[C@@H](O)C[C@@H]1O [22S-methoxy-1,25(OH)2 D3]
potency in inducing differentiation of HL-60 cancer cells, times that of 1,25(OH)2 D3 [14]: 0.25 times
receptor binding affinity, times that of 1,25(OH)2 D3 [15]: 0.03 times

SMILES: C=C1/C(=C\C=C2/CCC[C@]3(C)[C@@H]([C@@H](C)C(O)CCC(C)(C)O)CC[C@@H]23)C[C@@H](O)C[C@@H]1O (some centres unmarked) [CB1297]
inhibition at 0.1 µM [1]: 75%
HaCaT rel. (ratio between the IC50 value of 1,25(OH)2 D3 and the IC50 value of the compound) [1]: 45
MLR rel. (ratio between the IC50 value of 1,25(OH)2 D3 and the IC50 value of the compound) [2]: 12

SMILES: C=C1/C(=C\C=C2/CCC[C@]3(C)[C@@H]([C@H](C)CCCCC(O)(CC)CC)CC[C@@H]23)C[C@@H](O)C[C@@H]1O [CB 966]
skin allograft survival / immunosuppression [16]: prolonged skin allograft survival in mice

SMILES: C=C1/C(=C\C=C2/CCC[C@]3(C)[C@@H]([C@H](C)/C=C/C=C/C(O)(CC)CC)CC[C@@H]23)C[C@@H](O)C[C@@H]1O [EB 1089]
growth of breast cancer cells [17]: inhibits the growth of breast cancer cells in vitro
growth of breast cancer cells [18]: inhibits the growth of breast cancer cells in vitro and in vivo
selectivity between the anti-cancer and the calcemic effects ([18]; in vivo): definite selectivity between the anti-cancer and the calcemic effects in vivo

SMILES: C=C1/C(=C\C=C2/CCC[C@]3(C)[C@@H]([C@@H](C)OCCCC(O)(CC)CC)CC[C@@H]23)C[C@@H](O)C[C@@H]1O [KH 1060, 20-epi-22-oxa-25,26,27-trihomo-1,25-(OH)2 D3]
hypercalcemia / serum calcium [16]: induced hypercalcemia in the highest, and most effective, dose
skin allograft survival / immunosuppression [16]: prolonged skin allograft survival in mice; also recorded: most potent immunosuppressor
effect on calcium and bone [5]: only slight
immunoregulation in type I diabetes [5]: effective immunoregulator
toxicity [19]: toxic in the most effective high doses
delaying autoimmune disease recurrence ([19]; islet transplantation): very effective in delaying autoimmune disease recurrence
transcriptional activity [20]: enhanced transcriptional activity

SMILES: C=C1/C(=C\C=C2/CCC[C@]3(C)[C@@H]([C@@H](C)CCCC(C)(C)O)CC[C@@H]23)C[C@@H](O)C[C@@H]1O [MC1288, 20-epi-1,25(OH)2 D3]
inhibition at 0.1 µM [1]: 76%
HaCaT rel. (ratio between the IC50 value of 1,25(OH)2 D3 and the IC50 value of the compound) [1]: 43
MLR rel. (ratio between the IC50 value of 1,25(OH)2 D3 and the IC50 value of the compound) [2]: 150
Calc. rel. (calcemic activity relative to 1,25(OH)2 D3) [3]: 2.5
immunosuppression / prevention of graft rejection ([23]; rat heart and small bowel transplantation): effective as an immunosuppressant in a rat model of heart and small bowel transplantations, preventing graft rejection; also recorded: valuable immunosuppressive activity in animal transplantation experiments
serum calcium level ([23]; rat transplantation model): moderately increased
hypercalcemia / serum calcium [16]: less hypercalcemic than KH 1060
skin allograft survival / immunosuppression [16]: very effective
transcriptional activity [20]: enhanced transcriptional activity
